Data published in the supplement of paper PMC10307832.

How the values were obtained:
Test in all cases: relative viability (nuclei count vs DMSO), 5 days (fraction); higher = more cells survive
VE-821 + Pemetrexed = compound: CS(=O)(=O)c1ccc(-c2cnc(N)c(C(=O)Nc3ccccc3)n2)cc1 [VE-821] + Nc1nc2[nH]cc(CCc3ccc(C(=O)N[C@@H](CCC(=O)O)C(=O)O)cc3)c2c(=O)[nH]1 [Pemetrexed] (partner 0.2 µM)
Summary of the method: (§1)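 Medians of duplicate plates are given as relative viability. That measure is the nuclei count in treated wells divided by the count in vehicle wells. Counts were taken on 4× images of lung cancer cell lines in 1536-well plates, 5 days after pin-tool dosing the day after seeding with one drug alone or a fixed anchor-drug dose plus five library-drug doses (not always all listed) in √10 steps.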

Vismodegib + Foretinib = compound: CS(=O)(=O)c1ccc(C(=O)Nc2ccc(Cl)c(-c3ccccn3)c2)c(Cl)c1 [Vismodegib] + COc1cc2c(Oc3ccc(NC(=O)C4(C(=O)Nc5ccc(F)cc5)CC4)cc3F)ccnc2cc1OCCCN1CCOCC1 [Foretinib] (partner 0.25 µM)
Summary of the method: as §1

Vismodegib + Pictilisib = compound: CS(=O)(=O)c1ccc(C(=O)Nc2ccc(Cl)c(-c3ccccn3)c2)c(Cl)c1 [Vismodegib] + CS(=O)(=O)N1CCN(Cc2cc3nc(-c4cccc5[nH]ncc45)nc(N4CCOCC4)c3s2)CC1 [Pictilisib] (partner 1 µM)
Summary of the method: as §1

Ruxolitinib + Alpelisib = compound: N#CC[C@H](C1CCCC1)n1cc(-c2ncnc3[nH]ccc23)cn1 [Ruxolitinib] + Cc1nc(NC(=O)N2CCC[C@H]2C(N)=O)sc1-c1ccnc(C(C)(C)C(F)(F)F)c1 [Alpelisib] (partner 2 µM)
Summary of the method: as §1

Row | Cell Line | relative viability (VE-821 + Pemetrexed; first compound 0.08 µM) | relative viability (VE-821 + Pemetrexed; first compound 0.253 µM) | relative viability (VE-821 + Pemetrexed; first compound 0.8 µM) | relative viability (VE-821 + Pemetrexed; first compound 2.53 µM) | relative viability (VE-821 + Pemetrexed; first compound 8 µM) | relative viability (Vismodegib + Foretinib; first compound 0.08 µM) | relative viability (Vismodegib + Foretinib; first compound 0.253 µM) | relative viability (Vismodegib + Foretinib; first compound 0.8 µM) | relative viability (Vismodegib + Foretinib; first compound 2.53 µM) | relative viability (Vismodegib + Foretinib; first compound 8 µM) | relative viability (Vismodegib + Pictilisib; first compound 0.08 µM) | relative viability (Vismodegib + Pictilisib; first compound 0.253 µM) | relative viability (Vismodegib + Pictilisib; first compound 0.8 µM) | relative viability (Vismodegib + Pictilisib; first compound 2.53 µM) | relative viability (Vismodegib + Pictilisib; first compound 8 µM) | relative viability (Ruxolitinib + Alpelisib; first compound 0.08 µM) | relative viability (Ruxolitinib + Alpelisib; first compound 0.253 µM) | relative viability (Ruxolitinib + Alpelisib; first compound 0.8 µM) | relative viability (Ruxolitinib + Alpelisib; first compound 2.53 µM) | relative viability (Ruxolitinib + Alpelisib; first compound 8 µM)
1 | NCI-H1563 | 0.778 | 0.7 | 0.613 | 0.761 | 0.481 | 0.895 | 1.02 | 0.922 | 0.936 | 1.02 | 0.649 | 0.591 | 0.647 | 0.643 | 0.72 | 0.923 | 0.813 | 1 | 0.895 | 0.818
2 | NCI-H1651 | 0.576 | 0.616 | 0.625 | 0.554 | 0.545 | 0.818 | 0.604 | 0.782 | 0.739 | 0.781 | 0.579 | 0.549 | 0.523 | 0.54 | 0.637 | 0.941 | 0.875 | 1.08 | 1.09 | 0.968
3 | NCI-H1666 | 0.941 | 0.841 | 0.779 | 0.558 | 0.571 | 1.01 | 0.935 | 1.05 | 0.925 | 0.936 | 0.341 | 0.41 | 0.42 | 0.434 | 0.537 | 0.973 | 0.821 | 1.06 | 0.823 | 1
4 | NCI-H1734 | 0.413 | 0.391 | 0.374 | 0.351 | 0.297 | 0.875 | 0.869 | 0.876 | 0.772 | 0.946 | 0.429 | 0.446 | 0.429 | 0.469 | 0.512 | 0.68 | 0.579 | 0.798 | 0.623 | 0.667
5 | NCI-H1755 | 0.464 | 0.655 | 0.431 | 0.361 | 0.247 | 0.894 | 0.91 | 0.947 | 0.96 | 0.913 | 0.43 | 0.406 | 0.471 | 0.448 | 0.449 | 0.885 | 0.904 | 0.97 | 0.796 | 0.623
6 | NCI-H1793 | 1.2 | 0.769 | – | 1.13 | 0.565 | – | 0.524 | 0.616 | 0.848 | 0.609 | – | 0.413 | 0.411 | 0.367 | 0.325 | 0.539 | 0.654 | 0.789 | 0.83 | 0.679
7 | NCI-H1915 | 0.499 | 0.432 | 0.344 | 0.311 | 0.23 | 1.02 | 1.06 | 1.05 | 1.05 | 1.08 | 0.997 | 1.01 | 0.851 | 0.826 | 0.727 | 1.06 | 1.04 | 1.11 | 1.04 | 0.966
8 | NCI-H1944 | 0.693 | 0.695 | 0.495 | 0.384 | 0.172 | 0.851 | 0.794 | 0.897 | 0.878 | 0.942 | 0.354 | 0.349 | 0.308 | 0.327 | 0.345 | 0.777 | 0.689 | 0.863 | 0.782 | 0.753
9 | NCI-H1975 | 0.297 | 0.282 | 0.264 | 0.213 | 0.167 | 0.993 | 0.996 | 0.933 | 0.832 | 0.964 | 0.294 | 0.311 | 0.264 | 0.304 | 0.307 | 0.663 | 0.559 | 0.587 | 0.482 | 0.338
10 | NCI-H1993 | 0.6 | 0.596 | 0.35 | 0.638 | 0.601 | 0.863 | 0.654 | 0.782 | 0.773 | 0.675 | 0.875 | 0.947 | 0.771 | 0.792 | 0.822 | 0.705 | 0.71 | 0.678 | 0.722 | 0.675
11 | NCI-H2009 | 1.03 | 1 | 1.02 | 0.851 | 0.732 | 1.23 | 1.23 | 1.29 | 1.19 | 1.23 | 0.818 | 0.858 | 0.727 | 0.812 | 0.908 | 1.11 | 1.17 | 1.12 | 1.01 | 0.903
12 | NCI-H2023 | 0.24 | 0.202 | 0.17 | 0.123 | 0.0894 | 0.974 | 0.804 | 0.881 | 0.834 | 0.999 | 0.268 | 0.229 | 0.195 | 0.238 | 0.254 | 0.617 | 0.56 | 0.595 | 0.489 | 0.6
13 | NCI-H2085 | 0.936 | 0.848 | 0.61 | – | 0.612 | 0.86 | 0.96 | 0.989 | 0.755 | 0.796 | 0.418 | 0.447 | 0.377 | 0.444 | 0.417 | 0.971 | 1.02 | 1.13 | 0.979 | 0.822
14 | NCI-H2087 | 0.667 | 0.634 | 0.65 | 0.679 | 0.67 | 1.09 | 1.1 | 0.985 | 1.13 | 0.938 | 0.673 | 0.702 | 0.843 | 0.874 | 0.732 | 0.951 | 0.832 | 1.13 | 0.769 | 0.954
15 | NCI-H2126 | 0.687 | 0.585 | 0.693 | 0.475 | 0.31 | 1.19 | 1.13 | – | 1.09 | 1.15 | 0.519 | 0.521 | 0.446 | 0.493 | 0.484 | 0.773 | 0.767 | 0.782 | 0.807 | 0.789
16 | NCI-H2170 | 0.277 | 0.23 | 0.281 | 0.234 | 0.177 | 0.996 | 1 | 1.04 | 1.02 | 1.08 | 0.301 | 0.286 | 0.306 | 0.347 | 0.325 | 0.891 | 0.857 | 0.753 | 0.821 | 0.737
17 | NCI-H2228 | 0.333 | 0.373 | 0.301 | 0.253 | 0.156 | 0.866 | 1.02 | 0.871 | 0.769 | 1.01 | 0.493 | 0.538 | 0.359 | 0.413 | 0.347 | 0.667 | 0.56 | 0.773 | 0.46 | 0.361
18 | NCI-H2347 | 0.482 | 0.45 | 0.418 | 0.445 | 0.526 | 1.12 | 0.599 | – | 0.834 | 0.978 | 0.563 | 0.664 | 0.637 | 0.609 | 0.717 | 0.949 | 0.999 | 1.17 | 0.984 | 1.19
19 | NCI-H2405 | 1.09 | 1.04 | 1.05 | 1.12 | 0.884 | 1.05 | 1.04 | 0.995 | 1.01 | 1.08 | – | 0.441 | 0.373 | 0.341 | 0.531 | – | 0.715 | 0.984 | 0.416 | 0.465
20 | NCI-H3122 | 0.202 | 0.19 | 0.176 | 0.159 | 0.128 | 0.994 | 0.938 | 0.849 | 0.858 | 1.02 | 0.548 | 0.599 | 0.553 | 0.696 | 0.565 | 0.807 | 0.786 | 0.851 | 0.556 | 0.617
21 | PC-3 [JPC-3] | 1.25 | 1.03 | 1.18 | 1.13 | 0.848 | 1.08 | 1.01 | 0.965 | 0.993 | 1.03 | 0.756 | 0.736 | 0.694 | 0.716 | 0.726 | 0.763 | 1.05 | 1.1 | 0.991 | 0.932
22 | PC-14 | 0.126 | 0.124 | 0.0908 | 0.0863 | 0.0432 | 0.91 | 0.948 | 0.984 | 0.998 | 0.963 | 0.492 | 0.576 | 0.792 | 0.541 | 0.821 | – | 0.868 | 0.902 | 0.879 | 0.78
23 | RERF-LC-KJ | 0.495 | 0.504 | 0.46 | 0.457 | 0.376 | 0.826 | 0.848 | 0.852 | 0.85 | 0.821 | 0.585 | 0.496 | 0.663 | 0.567 | 0.561 | 0.811 | 0.775 | 0.892 | 0.877 | 0.771
24 | SK-LU-1 | 0.971 | 0.943 | 0.917 | 0.672 | 0.4 | 0.76 | 0.821 | 0.875 | 0.753 | 0.818 | 0.503 | 0.666 | 0.636 | 0.583 | 0.643 | 1.18 | 1.05 | 1.11 | 0.823 | 0.623
25 | SK-MES-1 | 0.98 | 0.934 | 0.838 | 0.612 | 0.352 | 0.865 | 0.91 | 0.961 | 0.889 | 0.918 | 0.358 | 0.348 | 0.363 | 0.348 | 0.344 | 0.984 | 0.878 | 0.986 | 0.722 | 0.795
26 | SW 1573 | 0.774 | 0.816 | 0.748 | 0.784 | 0.576 | 0.994 | 0.908 | 0.907 | 0.895 | 1.01 | 0.417 | 0.509 | 0.59 | 0.502 | 0.51 | 0.926 | 0.712 | 0.984 | 0.558 | 0.687
